Reference: patent publication US9518018B2, “3-alkoxy, thioalkyl and amino-4-amino-6-(substituted)picolinates and their use as herbicides” (Dow AgroSciences LLC, priority 2011, dated 2016)

How the values were obtained:
[1] = test system: ABUTH: velvetleaf (Abutilon theophrasti); assay: Post-Emergent Test I herbicidal activity; format: in vivo; settings: Abutilon theophrasti, post-emergence, 336 h, read-out: Visual Growth Reduction (%)-14 Days after Application ABUTH; for pest or weed control at 140 g/ha: Table 3, 140 g ai/ha; for pest or weed control at 70 g/ha: Table 3, 70 g ai/ha
Description: (§1) Seeds or nutlets of the desired test plant species were planted in Sun Gro Metro-Mix® 360 planting mixture, which typically has a pH of 6.0 to 6.8 and an organic matter content of about 30 percent, in plastic pots with a surface area of 64 square centimeters. When required to ensure good germination and healthy plants, a fungicide treatment and/or other chemical or physical treatment was applied. The plants were grown for 7-21 d in a greenhouse with an approximate 15 h photoperiod which was maintained at about 23-29° C. during the day and 22-28° C. during the night. Nutrients and water were added on a regular basis and supplemental lighting was provided with overhead metal halide 1000-Watt lamps as necessary. The plants were employed for testing when they reached the first or second true leaf stage.
(§2) A weighed amount, determined by the highest rate to be tested, of each test compound was placed in a 25 mL glass vial and was dissolved in 4 mL of a 97:3 v/v mixture of acetone and DMSO to obtain concentrated stock solutions. […] The concentrated stock solutions obtained were diluted with 20 mL of an aqueous mixture containing acetone, water, isopropyl alcohol, DMSO, Atplus 411F crop oil concentrate, and Triton® X-155 surfactant in a 48.5:39:10:1.5:1.0:0.02 v/v ratio to obtain spray solutions containing the highest application rates. Additional application rates were obtained by serial dilution of 12 mL of the high rate solution into a solution containing 2 mL of 97:3 v/v mixture of acetone and DMSO and 10 mL of an aqueous mixture containing acetone, water, isopropyl alcohol, DMSO, Atplus 411F crop oil concentrate, and Triton X-155 surfactant in a 48.5:39:10:1.5:1.0:0.02 v/v ratio to obtain ½×, ¼×, ⅛× and 1/16× rates of the high rate. Compound requirements are based upon a 12 mL application volume at a rate of 187 liters per hectare (L/ha). Formulated compounds were applied to the plant material with an overhead Mandel track sprayer equipped with 8002E nozzles calibrated to deliver 187 L/ha over an application area of 0.503 square meters at a spray height of 18 inches (43 cm) above the average plant canopy height. Control plants were sprayed in the same manner with the solvent blank.
(§3) The treated plants and control plants were placed in a greenhouse as described above and watered by subirrigation to prevent wash-off of the test compounds. After 14 d, the condition of the test plants as compared with that of the untreated plants was determined visually and scored on a scale of 0 to 100 percent where 0 corresponds to no injury and 100 corresponds to complete kill.
(§4) By applying the well-accepted probit analysis as described by J. Berkson in Journal of the […], 48, 565 (1953) and by D. Finney in “Probit Analysis” Cambridge University Press (1952), the above data can be used to calculate GR20, GR50 and GR80 values, which are defined as growth reduction factors that correspond to the effective dose of herbicide required to kill or control 20 percent, 50 percent or 80 percent, respectively, of a target plant.

[2] = test system: CHEAL: lambsquarters (Chenopodium album); assay: Post-Emergent Test I herbicidal activity; format: in vivo; settings: Chenopodium album, post-emergence, 336 h, read-out: Visual Growth Reduction (%)-14 Days after Application CHEAL; for pest or weed control at 140 g/ha: Table 3, 140 g ai/ha; for pest or weed control at 70 g/ha: Table 3, 70 g ai/ha
Description: as §1, §2, §3, §4

[3] = test system: CYPES: yellow nutsedge (Cyperus esculentus); assay: Post-Emergent Test I herbicidal activity; format: in vivo; settings: post-emergence, 336 h, read-out: Visual Growth Reduction (%)-14 Days after Application CYPES; for pest or weed control at 140 g/ha: Table 3, 140 g ai/ha; for pest or weed control at 70 g/ha: Table 3, 70 g ai/ha
Description: as §1, §2, §3, §4

[4] = test system: ECHCG: barnyardgrass (Echinochloa crus-galli); assay: Post-Emergent Test I herbicidal activity; format: in vivo; settings: post-emergence, 336 h, read-out: Visual Growth Reduction (%)-14 Days after Application ECHCG; for pest or weed control at 140 g/ha: Table 3, 140 g ai/ha; for pest or weed control at 70 g/ha: Table 3, 70 g ai/ha
Description: as §1, §2, §3, §4

[5] = test system: EPHHL: wild poinsettia (Euphorbia heterophylla); assay: Post-Emergent Test I herbicidal activity; format: in vivo; settings: post-emergence, 336 h, read-out: Visual Growth Reduction (%)-14 Days after Application EPHHL; for pest or weed control at 140 g/ha: Table 3, 140 g ai/ha; for pest or weed control at 70 g/ha: Table 3, 70 g ai/ha
Description: as §1, §2, §3, §4

[6] = test system: ORYSA: rice (Oryza sativa); assay: Post-Emergent Test I herbicidal activity; format: in vivo; settings: post-emergence, 336 h, read-out: Visual Growth Reduction (%)-14 Days after Application ORYSA; for pest or weed control at 140 g/ha: Table 3, 140 g ai/ha; for pest or weed control at 70 g/ha: Table 3, 70 g ai/ha
Description: as §1, §2, §3, §4

[7] = test system: ZEAMX: corn (Zea mays); assay: Post-Emergent Test I herbicidal activity; format: in vivo; settings: Zea mays, post-emergence, 336 h, read-out: Visual Growth Reduction (%)-14 Days after Application ZEAMX; for pest or weed control at 140 g/ha: Table 3, 140 g ai/ha; for pest or weed control at 70 g/ha: Table 3, 70 g ai/ha
Description: as §1, §2, §3, §4

SMILES	pest or weed control at 140 g/ha [1] [%]	pest or weed control at 140 g/ha [2] [%]	pest or weed control at 140 g/ha [3] [%]	pest or weed control at 140 g/ha [4] [%]	pest or weed control at 140 g/ha [5] [%]	pest or weed control at 140 g/ha [6] [%]	pest or weed control at 140 g/ha [7] [%]	other results
COC(=O)c1nc(-c2ccc([Si](C)(C)C)cc2F)c(F)c(N)c1OC	–	–	–	–	–	–	–	melting point: 127 to 129 °C
COC(=O)c1nc(-c2cc(F)c([Si](C)(C)C)cc2F)c(F)c(N)c1OC	–	–	–	–	–	–	–	melting point: 137 to 139 °C
COC(=O)c1nc(-c2ccc(Cl)c(OC)c2F)cc(N)c1OC(F)F [Compound 9]	–	–	–	–	–	–	–	melting point: 162 to 164 °C
COC(=O)c1nc(-c2ccc(OC)nc2)c(F)c(N)c1OC [Compound 75, methyl 4-amino-3-fluoro-5,6′-dimethoxy-[2,3′-bipyridine]-6-carboxylate]	90	85	95	0	85	0	85	–
COC(=O)c1nc(-c2ccc(Cl)c(OC)c2F)cc(NC(C)=O)c1OC [Compound 3, methyl 4-acetamido-6-(4-chloro-2-fluoro-3-methoxyphenyl)-3-methoxypicolinate]	100	100	0	0	100	0	10	–
COC(=O)c1nc(C(C)(F)F)cc(N)c1OC [Compound 81, methyl 4-amino-6-(1,1-difluoroethyl)-3-methoxypicolinate]	10	80	0	0	60	0	0	–
COc1c(C(=O)O)nc(-c2ccc(Br)cc2F)c(F)c1N [Compound 61]	80	100	100	95	100	10	75	–
COc1c(C(=O)O)nc(Cl)c(F)c1N [Compound 51]	–	–	–	–	–	–	–	pest or weed control at 70 g/ha [1]: 0%; pest or weed control at 70 g/ha [2]: 90%; pest or weed control at 70 g/ha [3]: 0%; pest or weed control at 70 g/ha [4]: 0%; pest or weed control at 70 g/ha [5]: 100%; pest or weed control at 70 g/ha [6]: 0%; pest or weed control at 70 g/ha [7]: 0%
COc1c(C(=O)O)nc(-c2ccc(Cl)c(C(C)F)c2F)c(F)c1N (stereo not shown) [Compound 65]	100	100	100	65	100	0	70	–
COC(=O)c1nc(-c2ccc3c(c2F)OCO3)c(F)c(N)c1OC [Compound 42]	60	90	10	0	100	0	75	–
COC(=O)c1nc(-c2ccc([Si](C)(C)C)c(F)c2F)c(F)c(N)c1OC	–	–	–	–	–	–	–	melting point: 123 to 125 °C
CCOC(=O)c1nc(-c2ccc(Cl)c(OC)c2F)cc(N)c1OC(F)F [Compound 8, ethyl 4-amino-6-(4-chloro-2-fluoro-3-methoxyphenyl)-3-(difluoromethoxy)picolinate]	–	–	–	–	–	–	–	pest or weed control at 280 g/ha ([1]; Table 3, 280 g ai/ha): 25%; pest or weed control at 280 g/ha ([2]; Table 3, 280 g ai/ha): 30%; pest or weed control at 280 g/ha ([3]; Table 3, 280 g ai/ha): 0%; pest or weed control at 280 g/ha ([4]; Table 3, 280 g ai/ha): 0%; pest or weed control at 280 g/ha ([5]; Table 3, 280 g ai/ha): 90%; pest or weed control at 280 g/ha ([6]; Table 3, 280 g ai/ha): 0%; pest or weed control at 280 g/ha ([7]; Table 3, 280 g ai/ha): 0%
COC(=O)c1nc(-c2ccc(I)cc2F)c(F)c(N)c1OC [Compound 26]	10	90	50	55	100	0	75	–
COC(=O)c1nc(-c2ccc(C#N)cc2)c(F)c(N)c1OC [Compound 41]	80	100	100	0	100	0	70	–
COc1ccc(-c2nc(C(=O)O)c(OC)c(N)c2F)cn1 [Compound 78, 4-amino-3-fluoro-5,6′-dimethoxy-[2,3′-bipyridine]-6-carboxylic acid]	–	–	–	–	–	–	–	pest or weed control at 70 g/ha [1]: 80%; pest or weed control at 70 g/ha [2]: 97%; pest or weed control at 70 g/ha [3]: 80%; pest or weed control at 70 g/ha [4]: 85%; pest or weed control at 70 g/ha [5]: 80%; pest or weed control at 70 g/ha [6]: 50%; pest or weed control at 70 g/ha [7]: 80%
CCOC(=O)c1nc(-c2ccc(Cl)cc2F)cc(N)c1OCC(F)F [Compound 68]	–	–	–	–	–	–	–	pest or weed control at 180 g/ha ([1]; Table 3, 180 g ai/ha): 100%; pest or weed control at 180 g/ha ([2]; Table 3, 180 g ai/ha): 90%; pest or weed control at 180 g/ha ([3]; Table 3, 180 g ai/ha): 90%; pest or weed control at 180 g/ha ([4]; Table 3, 180 g ai/ha): 0%; pest or weed control at 180 g/ha ([5]; Table 3, 180 g ai/ha): 100%; pest or weed control at 180 g/ha ([6]; Table 3, 180 g ai/ha): 0%; pest or weed control at 180 g/ha ([7]; Table 3, 180 g ai/ha): 10%
